Biological target: T1, dCTP pyrophosphatase 1 (Homo sapiens, UniProt Q9H773)
T1 sequence (Q9H773 whole entry): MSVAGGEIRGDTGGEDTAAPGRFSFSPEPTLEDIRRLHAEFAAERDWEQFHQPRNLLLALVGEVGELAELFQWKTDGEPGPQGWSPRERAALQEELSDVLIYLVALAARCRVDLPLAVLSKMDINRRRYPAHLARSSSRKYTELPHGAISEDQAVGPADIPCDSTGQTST
Assay: Enzyme Assay
Settings: pH 7.4; 25 °C
Experimental: Kinetic enzyme assays were performed in a 384-well, white plates (Nunc) on a Wallac Victor 2 plate reader using human DCTPP1 and triptolide and analogues.

SMILES: CC(C)[C@]12O[C@H]1[C@@H]1O[C@@]13[C@@]1(C)CCC4=C(COC4=O)[C@]1(O)C[C@@H]1O[C@@]13C2=O [5-Hydroxytriptonide, 6]
- Ki: 356 µM

SMILES: CC(C)[C@]1(O)[C@H](O)[C@@H]2O[C@]23[C@]2(O[C@H]2CC2C4=C(CC[C@@]23C)C(=O)OC4)[C@@H]1O (some centres not stated) [Triptriolide, 5]
- Ki: 85 µM
